Reference: PubChem BioAssay (NCI)
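Method: 48-hour compound exposure of cells in 96-well plates, five concentrations, linear interpolation of endpoints. TGI is the concentration that stops growth completely.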

Columns and labels:
Test in all cases: NCI-60 cell line screen, 48 h
HT29 colon = tested on: HT29 colon
SK-MEL-5 melanoma = tested on: SK-MEL-5 melanoma
NCI-H23 lung = tested on: NCI-H23 lung
SK-OV-3 ovarian = tested on: SK-OV-3 ovarian
SF-295 CNS = tested on: SF-295 CNS
SW-620 colon = tested on: SW-620 colon
OVCAR-5 ovarian = tested on: OVCAR-5 ovarian
CAKI-1 renal = tested on: CAKI-1 renal
U251 CNS = tested on: U251 CNS
786-0 renal = tested on: 786-0 renal
UACC-257 melanoma = tested on: UACC-257 melanoma
RPMI-8226 leukemia = tested on: RPMI-8226 leukemia
KM12 colon = tested on: KM12 colon
NCI-H460 lung = tested on: NCI-H460 lung
SN12C renal = tested on: SN12C renal
HCT-116 colon = tested on: HCT-116 colon
COLO 205 colon = tested on: COLO 205 colon
BT-549 breast = tested on: BT-549 breast
SNB-75 CNS = tested on: SNB-75 CNS
HCT-15 colon = tested on: HCT-15 colon
UO-31 renal = tested on: UO-31 renal
OVCAR-8 ovarian = tested on: OVCAR-8 ovarian
M14 melanoma = tested on: M14 melanoma
SF-268 CNS = tested on: SF-268 CNS
PC-3 prostate = tested on: PC-3 prostate
SNB-19 CNS = tested on: SNB-19 CNS
HS 578T breast = tested on: HS 578T breast
RXF 393 renal = tested on: RXF 393 renal
MALME-3M melanoma = tested on: MALME-3M melanoma
HL-60(TB) leukemia = tested on: HL-60(TB) leukemia
HOP-92 NSCLC = tested on: HOP-92 NSCLC
T-47D breast = tested on: T-47D breast
MDA-N = tested on: MDA-N
SK-MEL-2 melanoma = tested on: SK-MEL-2 melanoma
ACHN renal = tested on: ACHN renal
NCI-H226 lung = tested on: NCI-H226 lung
NCI/ADR-RES ovarian = tested on: NCI/ADR-RES ovarian
A549 NSCLC = tested on: A549 NSCLC
K-562 leukemia = tested on: K-562 leukemia
IGROV1 ovarian = tested on: IGROV1 ovarian
DU-145 prostate = tested on: DU-145 prostate
NCI-H522 lung = tested on: NCI-H522 lung
CCRF-CEM leukemia = tested on: CCRF-CEM leukemia
UACC-62 melanoma = tested on: UACC-62 melanoma
MDA-MB-435 = tested on: MDA-MB-435
MDA-MB-231 breast = tested on: MDA-MB-231 breast
EKVX NSCLC = tested on: EKVX NSCLC
MCF7 breast = tested on: MCF7 breast
SF-539 CNS = tested on: SF-539 CNS
A498 renal = tested on: A498 renal
SK-MEL-28 melanoma = tested on: SK-MEL-28 melanoma
HCC-2998 colon = tested on: HCC-2998 colon
OVCAR-4 ovarian = tested on: OVCAR-4 ovarian
MOLT-4 leukemia = tested on: MOLT-4 leukemia
HOP-62 NSCLC = tested on: HOP-62 NSCLC
OVCAR-3 ovarian = tested on: OVCAR-3 ovarian
TK-10 renal = tested on: TK-10 renal

Measured: TGI

CC(NC(=O)C(C)C(=O)Nc1ccc(C(F)(F)F)cc1)C(N)=O (stereo not given)
> 100 µM: HT29 colon | SK-MEL-5 melanoma | NCI-H23 lung | SK-OV-3 ovarian | SF-295 CNS | SW-620 colon | OVCAR-5 ovarian | CAKI-1 renal | U251 CNS | 786-0 renal | UACC-257 melanoma | RPMI-8226 leukemia | KM12 colon | NCI-H460 lung | SN12C renal | HCT-116 colon | COLO 205 colon | BT-549 breast | SNB-75 CNS | HCT-15 colon | UO-31 renal | OVCAR-8 ovarian | M14 melanoma | SF-268 CNS | PC-3 prostate | SNB-19 CNS | HS 578T breast | RXF 393 renal | MALME-3M melanoma | HL-60(TB) leukemia | HOP-92 NSCLC | T-47D breast | MDA-N | SK-MEL-2 melanoma | ACHN renal | NCI-H226 lung | NCI/ADR-RES ovarian | A549 NSCLC | K-562 leukemia | IGROV1 ovarian | DU-145 prostate | NCI-H522 lung | CCRF-CEM leukemia | UACC-62 melanoma | MDA-MB-435 | MDA-MB-231 breast | EKVX NSCLC | MCF7 breast | SF-539 CNS

O=[N+]([O-])C(=C1NCCN1)/C(Cl)=C(/Cl)N1CCOCC1
> 100 µM: HT29 colon | NCI-H23 lung | SK-OV-3 ovarian | A498 renal | SF-295 CNS | SW-620 colon | OVCAR-5 ovarian | SK-MEL-28 melanoma | CAKI-1 renal | U251 CNS | 786-0 renal | UACC-257 melanoma | RPMI-8226 leukemia | KM12 colon | NCI-H460 lung | SN12C renal | HCT-116 colon | COLO 205 colon | BT-549 breast | SNB-75 CNS | HCT-15 colon | UO-31 renal | OVCAR-8 ovarian | M14 melanoma | HCC-2998 colon | SF-268 CNS | PC-3 prostate | SNB-19 CNS | OVCAR-4 ovarian | HS 578T breast | MALME-3M melanoma | MOLT-4 leukemia | T-47D breast | MDA-N | SK-MEL-2 melanoma | ACHN renal | NCI-H226 lung | HOP-62 NSCLC | NCI/ADR-RES ovarian | A549 NSCLC | K-562 leukemia | DU-145 prostate | CCRF-CEM leukemia | OVCAR-3 ovarian | UACC-62 melanoma | MDA-MB-435 | MDA-MB-231 breast | EKVX NSCLC | MCF7 breast | SF-539 CNS

COc1cc2c(cc1OC)C1C(O)C(OC)C(Br)C3(Br)CCN(C2)C13 (stereo not given)
> 100 µM: HT29 colon | SK-MEL-5 melanoma | NCI-H23 lung | SK-OV-3 ovarian | A498 renal | SF-295 CNS | SW-620 colon | OVCAR-5 ovarian | SK-MEL-28 melanoma | CAKI-1 renal | U251 CNS | 786-0 renal | UACC-257 melanoma | RPMI-8226 leukemia | KM12 colon | NCI-H460 lung | SN12C renal | HCT-116 colon | COLO 205 colon | BT-549 breast | SNB-75 CNS | HCT-15 colon | UO-31 renal | OVCAR-8 ovarian | M14 melanoma | HCC-2998 colon | SF-268 CNS | PC-3 prostate | SNB-19 CNS | OVCAR-4 ovarian | HS 578T breast | RXF 393 renal | MALME-3M melanoma | MOLT-4 leukemia | HL-60(TB) leukemia | HOP-92 NSCLC | T-47D breast | MDA-N | SK-MEL-2 melanoma | ACHN renal | NCI-H226 lung | HOP-62 NSCLC | NCI/ADR-RES ovarian | A549 NSCLC | TK-10 renal | IGROV1 ovarian | DU-145 prostate | NCI-H522 lung | CCRF-CEM leukemia | OVCAR-3 ovarian | UACC-62 melanoma | MDA-MB-435 | MDA-MB-231 breast | EKVX NSCLC | MCF7 breast | SF-539 CNS
